Laboratory results as given in patent US8575153B2 (Kowa Company, Ltd., priority 2008, dated 2013).

What follows are compounds tested against Recombinant human JAK3 enzyme (JAK3 kinase region; Ala795-Ser1124) (Homo sapiens, UniProt P52333) (assay: JAK3 Kinase Assay (Kinase-Glo luminescent, ATP consumption)). Details: read-out: Inhibition rate (%) of JAK3 kinase activity.
Chain of Recombinant human JAK3 enzyme (JAK3 kinase region; Ala795-Ser1124) (P52333 795-1124): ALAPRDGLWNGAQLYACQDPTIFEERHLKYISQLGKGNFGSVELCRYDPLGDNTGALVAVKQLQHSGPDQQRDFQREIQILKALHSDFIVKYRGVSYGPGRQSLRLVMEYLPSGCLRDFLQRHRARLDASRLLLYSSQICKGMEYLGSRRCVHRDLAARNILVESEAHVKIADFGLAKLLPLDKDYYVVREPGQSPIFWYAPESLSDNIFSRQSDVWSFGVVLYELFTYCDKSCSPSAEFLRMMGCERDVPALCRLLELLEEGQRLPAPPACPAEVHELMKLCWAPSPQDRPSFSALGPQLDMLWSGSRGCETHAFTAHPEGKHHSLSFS
Description: Recombinant human JAK3 enzyme (JAK3 kinase region; Ala795-Ser1124) was purchased from Carna Biosciences, Inc.
The reaction was conducted in a kinase buffer (reaction volume: a total of 50 μl) containing 8 mM MOPS (pH 7.0), 0.2 mM EDTA, a test compound solution prepared to each concentration and 0.5 μg/ml JAK3 enzyme using a 96-well polystyrene plate (clear-bottom white-wall). […] After incubating them at room temperature for 2 hours, 50 μl of Kinase-Glo Luminescent Kinase Assay reagent (Promega) was added to each well, and further incubated at room temperature for 10 minutes. Using a chemiluminescence microplate reader MicroLumat LB96P (Berthold), chemiluminescence intensity was measured to quantitate the amount of ATP remaining after reaction. From the amount of ATP consumed in the phosphorylation reaction, the inhibition rate (%) of JAK3 kinase activity was determined.

inhibition at 0.1 µM [%]	Structure (SMILES)
72	CN1CCC(Oc2ccc(Nc3cc(NCc4ccccc4)c(C(N)=O)cn3)cc2)CC1 [Example 52, 4-(benzylamino)-6-({4-[(1-methylpiperidin-4-yl)oxy]phenyl}amino)pyridine-3-carboxyamide]
89	NC(=O)c1cnc(Nc2ccc(N3CCC(CCO)CC3)cc2)cc1NCc1ccccc1 [Example 57, 4-(benzylamino)-6-({4-[4-(2-hydroxyethyl)piperidino]phenyl}amino)pyridine-3-carboxyamide]
76	CCN(CC)CCC1CCN(c2ccc(Nc3cc(NCc4ccccc4)c(C(N)=O)cn3)cc2)CC1 [Example 59, 4-(benzylamino)-6-[(4-{4-[2-(diethylamino)ethyl]piperidino}phenyl)amino]pyridine-3-carboxyamide]
65	N#CCCC1CCN(c2ccc(Nc3cc(NCc4ccccc4)c(C(N)=O)cn3)cc2)CC1 [Example 60, 4-(benzylamino)-6-({4-[4-(2-cyanoethyl)piperidino]phenyl}amino)pyridine-3-carboxyamide]
79	NC(=O)c1cnc(Nc2ccc(N)cc2)cc1NCc1ccccc1 [Example 65, 6-[(4-aminophenyl)amino]-4-(benzylamino) pyridine-3-carboxyamide]
75	NC(=O)c1cnc(Nc2ccc(NCCN3CCOCC3)cc2)cc1NCc1ccccc1 [Example 70, 4-(benzylamino)-6-({4-[(2-morpholinoethyl)amino]phenyl}amino)pyridine-3-carboxyamide]
70	CN(CCN1CCOCC1)c1ccc(Nc2cc(NCc3ccccc3)c(C(N)=O)cn2)cc1 [Example 71, 4-(benzylamino)-6-({4-[methyl(2-morpholinoethyl)amino]phenyl}amino)pyridine-3-carboxyamide]
65	NC(=O)c1cnc(Nc2ccc(N3CCOCC3)cc2)cc1NCc1ccccc1 [Example 72, 4-(benzylamino)-6-{(4-morpholinophenyl)amino]pyridine-3-carboxyamide]
56	COc1ccccc1CNc1cc(Nc2ccc(N3CCOCC3)cc2)ncc1C(N)=O [Example 73, 4-[(2-methoxybenzyl)amino]-6-[(4-morpholinophenyl)amino]pyridine-3-carboxyamide]
63	Cc1ccccc1CNc1cc(Nc2ccc(N3CCOCC3)cc2)ncc1C(N)=O [Example 76, 4-[(2-methylbenzyl)amino]-6-[(4-morpholinophenyl)amino]pyridine-3-carboxyamide]
55	Cc1cccc(CNc2cc(Nc3ccc(N4CCOCC4)cc3)ncc2C(N)=O)c1 [Example 77, 4-[(3-methylbenzyl)amino]-6-[(4-morpholinophenyl)amino]pyridine-3-carboxyamide]
79	NC(=O)c1cnc(Nc2ccc(N3CCOCC3)cc2)cc1NCc1ccccc1Cl [Example 80, 4-[(2-chlorobenzyl)amino]-6-[(4-morpholinophenyl)amino]pyridine-3-carboxyamide]
72	NC(=O)c1cnc(Nc2ccc(N3CCOCC3)cc2)cc1NCc1cccc(Cl)c1 [Example 81, 4-[(3-chlorobenzyl)amino]-6-[(4-morpholinophenyl)amino]pyridine-3-carboxyamide]
77	NC(=O)c1cnc(Nc2ccc(N3CCOCC3)cc2)cc1NCc1cccc(F)c1F [Example 90, 4-[(2,3-difluorobenzyl)amino]-6-[(4-morpholinophenyl)amino]pyridine-3-carboxyamide]
92	NC(=O)c1cnc(Nc2ccc(N3CCOCC3)cc2)cc1NCc1cc(F)cc(F)c1 [Example 91, 4-[(3,5-difluorobenzyl)amino]-6-[(4-morpholinophenyl)amino]pyridine-3-carboxyamide]
86	NC(=O)c1cnc(Nc2ccc(N3CCOCC3)cc2)cc1NCc1cc(F)ccc1F [Example 93, 4-[(2,5-difluorobenzyl)amino]-6-[(4-morpholinophenyl)amino]pyridine-3-carboxyamide]
96	NC(=O)c1cnc(Nc2ccc(N3CCOCC3)cc2)cc1NCc1c(F)cccc1F [Example 94, 4-[(2,6-difluorobenzyl)amino]-6-[(4-morpholinophenyl)amino]pyridine-3-carboxyamide]
74	NC(=O)c1cnc(Nc2ccc(N3CCOCC3)cc2)cc1NCc1cc(F)cc(C(F)(F)F)c1 [Example 96, 6-[(4-morpholinophenyl)amino]-4-{[3-fluoro-5-(trifluoromethyl)benzyl]amino}pyridine-3-carboxyamide]
80	COc1ccc(F)cc1CNc1cc(Nc2ccc(N3CCOCC3)cc2)ncc1C(N)=O [Example 99, 4-[(5-fluoro-2-methoxybenzyl)amino]-6-[(4-morpholinophenyl)amino]pyridine-3-carboxyamide]

inhibition at 0.1 µM [%]	Structure (SMILES)
53	NC(=O)c1cnc(Nc2ccc(N3CCOCC3)cc2)cc1NCc1cccc([N+](=O)[O-])c1 [Example 102, 6-[(4-morpholinophenyl)amino]-4-[(3-nitrobenzyl)amino]pyridine-3-carboxyamide]
70	NC(=O)c1cccc(CNc2cc(Nc3ccc(N4CCOCC4)cc3)ncc2C(N)=O)c1 [Example 115, 4-[(3-carbamoylbenzyl)amino]-6-[(4-morpholinophenyl)amino]pyridine-3-carboxyamide]
83	C[C@H]1COCCN1c1ccc(Nc2cc(NCc3ccccc3)c(C(N)=O)cn2)cc1 [Example 134, 4-(benzylamino)-6-({4-[(3S)-3-methylmorpholino]phenyl}amino)pyridine-3-carboxyamide]
80	C[C@@H]1CN(c2ccc(Nc3cc(NCc4ccccc4)c(C(N)=O)cn3)cc2)C[C@H](C)N1 [Example 136, 4-(benzylamino)-6-({4-[(3R,5S)-3,5-dimethylpiperazin-1-yl]phenyl}amino)pyridine-3-carboxyamide]
62	C[C@@H]1CN(c2ccc(Nc3cc(NCc4cccc(F)c4F)c(C(N)=O)cn3)cc2)C[C@H](C)N1 [Example 140, 4-[(2,3-difluorobenzyl)amino]-6-({4-[(3R,5S)-3,5-dimethylpiperazin-1-yl]phenyl}amino)pyridine-3-carboxyamide]
83	C[C@@H]1CN(c2ccc(Nc3cc(NCc4cc(F)cc(F)c4)c(C(N)=O)cn3)cc2)C[C@H](C)N1 [Example 141, 4-[(3,5-difluorobenzyl)amino]-6-({4-[(3R,5S)-3,5-dimethylpiperazin-1-yl]phenyl}amino) pyridine-3-carboxyamide]
66	C[C@@H]1CN(c2ccc(Nc3cc(NCc4cc(F)ccc4F)c(C(N)=O)cn3)cc2)C[C@H](C)N1 [Example 142, 4-[(2,5-difluorobenzyl)amino]-6-({4-[(3R,5S)-3,5-dimethylpiperazin-1-yl]phenyl}amino) pyridine-3-carboxyamide]
61	C[C@@H]1CN(c2cccc(Nc3cc(NCc4cc(F)cc(F)c4)c(C(N)=O)cn3)c2)C[C@H](C)N1 [Example 144, 4-[(3,5-difluorobenzyl)amino]-6-({3-[(3R,5S)-3,5-dimethylpiperazin-1-yl]phenyl}amino) pyridine-3-carboxyamide]
63	CN1CCN(c2ccc(Nc3cc(NCc4ccccc4)c(C(N)=O)cn3)cc2)CC1 [Example 145, 4-(benzylamino)-6-{[4-(4-methylpiperazin-1-yl)phenyl]amino}pyridine-3-carboxyamide]
78	CC(C)N1CCN(c2ccc(Nc3cc(NCc4ccccc4)c(C(N)=O)cn3)cc2)CC1 [Example 146, 4-(benzylamino)-6-({4-[4-(propan-2-yl)piperazin-1-yl]phenyl}amino)pyridine-3-carboxyamide]
58	COc1ccccc1CNc1cc(Nc2ccc(N3CCN(C(C)C)CC3)cc2)ncc1C(N)=O [Example 147, 4-[(2-methoxybenzyl)amino]-6-({4-[4-(propan-2-yl)piperazin-1-yl]phenyl}amino)pyridine-3-carboxyamide]
66	CC(C)N1CCN(c2ccc(Nc3cc(NCc4cccc(F)c4F)c(C(N)=O)cn3)cc2)CC1 [Example 150, 4-[(2,3-difluorobenzyl)amino]-6-({4-[4-(propan-2-yl)piperazin-1-yl]phenyl}amino)pyridine-3-carboxyamide]
69	CC(C)N1CCN(c2ccc(Nc3cc(NCc4cc(F)cc(F)c4)c(C(N)=O)cn3)cc2)CC1 [Example 151, 4-[(3,5-difluorobenzyl)amino]-6-({4-[4-(propan-2-yl)piperazin-1-yl]phenyl}amino)pyridine-3-carboxyamide]
94	CC(C)N1CCN(c2ccc(Nc3cc(NCc4c(F)cccc4F)c(C(N)=O)cn3)cc2)CC1 [Example 153, 4-[(2,6-difluorobenzyl)amino]-6-({4-[4-(propan-2-yl)piperazin-1-yl]phenyl}amino)pyridine-3-carboxyamide]
59	CC(C)N1CCN(c2cccc(Nc3cc(NCc4cc(F)cc(F)c4)c(C(N)=O)cn3)c2)CC1 [Example 155, 4-[(3,5-difluorobenzyl)amino]-6-({3-[4-(propan-2-yl)piperazin-1-yl]phenyl}amino)pyridine-3-carboxyamide]
66	CS(=O)(=O)Nc1ccc(Nc2cc(NCc3cccc([N+](=O)[O-])c3)c(C(N)=O)cn2)cc1 [Example 160, 4-[(3-nitrobenzyl)amino]-6-({4-[(methylsulfonyl)amino]phenyl}amino)pyridine-3-carboxyamide]
72	CCCS(=O)(=O)Nc1ccc(Nc2cc(NCc3cc(F)cc(F)c3)c(C(N)=O)cn2)cc1 [Example 162, 4-[(3,5-difluorobenzyl)amino]-6-({4-[(propylsulfonyl)amino]phenyl}amino)pyridine-3-carboxyamide]
77	CC(C)S(=O)(=O)Nc1ccc(Nc2cc(NCc3ccccc3)c(C(N)=O)cn2)cc1 [Example 163, 4-(benzylamino)-6-({4-[(propan-2-ylsulfonyl)amino]phenyl}amino)pyridine-3-carboxyamide]
